In brackets after ≈: the same amount, converted by molar mass.
Assays:
[1] = test system: Aspergillus niger DSM1957; assay: MIC evaluation (broth method), A. niger; type: cell-based
Experimental: (§1) Sterile 96-well microtiter plates (Sarstedt) with nutrient broth (for bacteria) (Biocorp) or YM medium (for yeast and filamentous fungi) were inoculated with a standardized cell suspension of bacteria and yeast or fungal spores of 10^5 cell·mL^−1, and supplemented with aminochalcones dissolved in DMSO. […] All analysis were conducted in triplicates. The plates were incubated at 30 °C (bacteria and yeast) or 25 °C (filamentous fungi) for 48–72 h. The results were measured with the Spark® Multimode Microplate Reader (Tecan, Männedorf, Switzerland) at a 560 nm wavelength. The minimal inhibitory concentration was defined as the lowest concentration of a tested compound that completely restricted the growth of the microorganism. In order to verify the obtained results, microbial cultures subjected to each concentration of aminochalcone were inoculated onto nutrient agar or YM plates and incubated as described above. The lack of growth on agar plate was a confirmation of the MIC of the tested compound. The resulting MIC values were compared with the reference substances: oxytetracycline (against bacteria), cycloheximide (against yeast) and nystatin (against fungi) (Sigma Aldrich).

[2] = test system: Staphylococcus aureus DSM799; assay: MIC evaluation (broth method), S. aureus; type: cell-based; conditions: 48–72 h, read-out: Minimal inhibitory concentration S. aureus
Experimental: as §1

[3] = test system: Fusarium linii KB-F1; assay: MIC evaluation (broth method), F. linii; type: cell-based; conditions: for MIC: Fusarium, KBF1, 48–72 h, read-out: Minimal inhibitory concentration F. linii
Experimental: as §1

[4] = test system: Staphylococcus aureus DSM799; assay: Microbial growth curve screening, S. aureus; type: cell-based; conditions: 0.1% (w/v), OD at 560 nm, control 1.67
Experimental: (§2) The antimicrobial screening tests were performed on two strains of bacteria: E. coli ATCC10536 and S. aureus DSM799, strain of yeast C. albicans DSM1386 and three strains of fungi: F. linii KB-F1, A. alternata CBS1526 and A. niger DSM1957. All microorganisms were obtained from the collection of the Faculty of Biotechnology and Food Microbiology, Wrocław University of Environmental and Life Sciences. The bacteria were cultured in nutrient broth (Biocorp, Warsaw, Poland), yeast and fungi in YM medium (3 g yeast extract, 3 g malt extract, 5 g bacteriological peptone and 10 g of glucose dissolved in 1 L of distilled water). The tests were carried out in 100-well microtiter plates. To each well 280 μL of culture medium, 10 μL of microorganism suspension and 10 μL of aminochalcone (1–18) dissolved in dimethyl sulfoxide (3% (w/v)) were added. The final concentration of the tested compound (1–18) was 0.1% (w/v). Each experiment were performed in 3 replications. The optical density of the cell suspension was measured on Bioscreen C (Automated Growth Curve Analysis System Lab System, Vantaa, Finland) at 560 nm automatically, at regular intervals of 30 min for 2–3 days. Cell cultures were maintained at 28 °C on a continuous shaker. To prepare the growth curves for each strain, the mean values of the absorbance in a function of time were used. The resulting antimicrobial activity was expressed as the increase of optical density (ΔOD) and was compared to that of the control cultures in the medium supplemented with dimethyl sulfoxide and also with reference substances: oxytetracycline (against bacteria), cycloheximide (against yeast) and nystatin (against fungi) (Sigma Aldrich).

[5] = test system: HT-29; assay: SRB antiproliferative assay, HT-29; type: cell-based, human; conditions: Homo sapiens, HT-29; SRB, 48 h, 1–100 µg·mL^−1; ND = not detected in the tested concentration range
Experimental: (§3) Anticancer activity was evaluated using the sulforhodamine B assay (SRB) on four different human colon cancer cell lines: HT-29, LS180, LoVo and LoVo/DX and green monkey kidney fibroblasts COS7 (ATCC, Manassas, VA, USA). Cell lines HT-29 and COS7 were cultured in α-MEM medium (IIET PAS, Wrocław, Poland), LS180 in OptiMEM medium (IIET PAS), LoVo and LoVo/DX in mixture of α-MEM and OptiMEM medium (1:1 (v:v)). Each culture medium was supplemented with 10% fetal bovine serum, 2 mM glutamine, 100 μg·mL^−1 penicillin, 100 μg·mL^−1 streptomycin and 0.25 μg·mL^−1 amphotericin (all supplements purchased from Gibco (Paisley, UK). Cells were incubated at 37 °C, 5% CO2 in HeraCELL 150i incubator (Thermo Fisher Scientific, Waltham, MA, USA).
(§4) For the SRB assay, cells were seeded onto 96-well plates (Sarstedt, Nümbrecht, Germany) at a density of 5·10^3/well and cultured overnight as described above. Then, the growth medium was gently removed and replaced with fresh medium, supplemented with aminochalcone derivatives in the concentration ranging from 1 µg·mL^−1 to 100 µg·mL^−1. All stock solutions were prepared in DMSO at a concentration of 10 mg·mL^−1. Cells were incubated for 48 h and then the SRB assay was performed as described previously. Each experiment was performed in quadruplicate. The final results were reported as the IC50 values calculated for three independent experiments. Cisplatin (Acros Organics, Waltham, MA, USA) and doxorubicin (Fisher BioReagents, Waltham, MA, USA) were used as positive controls of the test.

[6] = test system: Escherichia coli ATCC10536; assay: Microbial growth curve screening, E. coli; type: cell-based; conditions: 0.1% (w/v), OD at 560 nm, control 1.61
Experimental: as §2

[7] = test system: Alternaria alternata CBS1526; assay: Microbial growth curve screening, A. alternata; type: cell-based; conditions: 0.1% (w/v); for ∆OD A. alternata: OD at 560 nm, control 1.86; for Lag-phase A. alternata: control 16.5 h
Experimental: as §2

[8] = test system: LoVo/DX; assay: SRB antiproliferative assay, LoVo/DX; type: cell-based, human; conditions: Homo sapiens, LoVo/DX, 48 h, 1–100 µg·mL^−1, ND = not detected in the tested concentration range
Experimental: as §3, §4

[9] = test system: LS180; assay: SRB antiproliferative assay, LS180; type: cell-based, human; conditions: Homo sapiens, LS180, 48 h, 1–100 µg·mL^−1, ND = not detected in the tested concentration range
Experimental: as §3, §4

[10] = test system: Candida albicans DSM1386; assay: MIC evaluation (broth method), C. albicans; type: cell-based; conditions: DSM1386, broth method, 48–72 h, read-out: Minimal inhibitory concentration C. albicans
Experimental: as §1

[11] = test system: Aspergillus niger DSM1957; assay: Microbial growth curve screening, A. niger; type: cell-based; conditions: 0.1% (w/v); for ∆OD A. niger: OD at 560 nm, control 2.14; for Lag-phase A. niger: control 11.0 h
Experimental: as §2

[12] = test system: Fusarium linii KB-F1; assay: Microbial growth curve screening, F. linii; type: cell-based; conditions: 0.1% (w/v); for ∆OD F. linii: OD at 560 nm, control 1.95
Experimental: as §2

[13] = test system: Escherichia coli ATCC10536; assay: MIC evaluation (broth method), E. coli; type: cell-based; conditions: 48–72 h, read-out: Minimal inhibitory concentration E. coli
Experimental: as §1

[14] = test system: LoVo; assay: SRB antiproliferative assay, LoVo; type: cell-based, human; conditions: Homo sapiens, LoVo, 48 h, 1–100 µg·mL^−1, ND = not detected in the tested concentration range
Experimental: as §3, §4

[15] = SRB assay, normal fibroblasts COS7; type: cell-based, green monkey; conditions: green monkey, COS7 kidney fibroblasts (normal cell line), ND = not detected in the tested concentration range
Experimental: as §3, §4

[16] = test system: Candida albicans DSM1386; assay: Microbial growth curve screening, C. albicans; type: cell-based; conditions: 0.1% (w/v); for ∆OD C. albicans: OD at 560 nm, control 1.58; for Lag-phase C. albicans: control 3.0 h
Experimental: as §2

[17] = test system: Trichophyton rubrum; design: method as in doi:10.1007/s10600-018-2281-7; conditions: cited from earlier work
[18] = test system: Alternaria alternata CBS1526; assay: MIC evaluation (broth method), A. alternata; type: cell-based; conditions: 48–72 h
Experimental: as §1

Compound: Nc1cccc(C(=O)/C=C/c2ccc([N+](=O)[O-])cc2)c1 [Compound 11, 3′-Amino-4-nitrochalcone]
- MIC ([1]; Aspergillus niger, DSM1957, 48–72 h, read-out: Minimal inhibitory concentration A. niger): 1 mg/L (≈ 3.73 µM)
- MIC [2]: 0.25 mg/L (≈ 0.932 µM)
- MIC [3]: 0.5 mg/L (≈ 1.86 µM)
- ∆OD S. aureus [4]: 0.0
- melting point: 166 to 168 °C
- IC50 [5]: 2.77 ± 0.49 mg/L (≈ 10.3 µM)
- ∆OD E. coli [6]: 0.0
- ∆OD A. alternata [7]: 0.55
- Lag-phase A. alternata [7]: 42.0 h
- IC50 [8]: 1.36 ± 0.06 mg/L (≈ 5.07 µM)
- IC50 [9]: 2.89 ± 0.53 mg/L (≈ 10.8 µM)
- MIC [10]: 0.25 mg/L (≈ 0.932 µM)
- ∆OD A. niger [11]: 0.83
- Lag-phase A. niger [11]: 39.5 h
- ∆OD F. linii [12]: 0.0
- MIC [13]: 1000 mg/L (≈ 3730 µM)
- IC50 [14]: 1.34 ± 0.1 mg/L (≈ 4.99 µM)
- IC50 at 48 h [15]: 2.3 ± 0.45 mg/L (≈ 8.57 µM)

Compound: COc1cc(/C=C/C(=O)c2ccccc2N)ccc1OCc1ccccc1 [Compound 16, 2′-Amino-4-benzyloxy-3-methoxychalcone]
- MIC [2]: 0.5 mg/L (≈ 1.39 µM)
- MIC [3]: 0.5 mg/L (≈ 1.39 µM)
- ∆OD S. aureus [4]: 0
- IC50 [5]: 4.85 ± 0.08 mg/L (≈ 13.5 µM)
- ∆OD E. coli [6]: 0.0
- ∆OD A. alternata [7]: 0.64
- Lag-phase A. alternata [7]: 8.5 h
- IC50 [8]: 4.59 ± 0.21 mg/L (≈ 12.8 µM)
- IC50 [9]: 6.64 ± 0.29 mg/L (≈ 18.5 µM)
- ∆OD C. albicans [16]: 0.66
- Lag-phase C. albicans [16]: 8.5 h
- ∆OD A. niger [11]: 0.41
- Lag-phase A. niger [11]: 40.5 h
- ∆OD F. linii [12]: 0
- MIC [13]: 0.5 mg/L (≈ 1.39 µM)
- IC50 [14]: 5.77 ± 0.38 mg/L (≈ 16.1 µM)
- IC50 at 48 h [15]: 9.02 ± 0.17 mg/L (≈ 25.1 µM)

Compound: OC(Cn1cncn1)(Cn1cncn1)c1ccc(F)cc1F [fluconazole]
- MIC80 Trichophyton rubrum (literature) [17]: 0.25 mg/L (≈ 0.816 µM)

Compound: C[C@@H]1[C@H](O)[C@@H](C)/C=C/C=C/CC/C=C/C=C/C=C/C=C/C(O[C@H]2O[C@H](C)[C@@H](O)[C@H](N)[C@@H]2O)CC2O[C@](O)(CC(O)C(O)CCC(O)CC(O)CC(O)CC(=O)O[C@H]1C)CC(O)C2C(=O)O (stereo partly drawn) [Nystatin, reference compound]
- Minimal inhibitory concentration A. niger ([1]; 48–72 h): 250 mg/L (≈ 270 µM)
- Minimal inhibitory concentration F. linii ([3]; 48–72 h): 500 mg/L (≈ 540 µM)
- Minimal inhibitory concentration A. alternata [18]: 1000 mg/L (≈ 1080 µM)
- ∆OD A. alternata [7]: 0.0
- ∆OD A. niger [11]: 0.74
- Lag-phase A. niger [11]: 4.5 h
- ∆OD F. linii [12]: 0.13
- Lag-phase F. linii ([12]; control 13.5 h): 10.0 h

Compound: Nc1ccc(C(=O)/C=C/c2ccc([N+](=O)[O-])cc2)cc1 [Compound 12, 4′-Amino-4-nitrochalcone]
- MIC [2]: 0.25 mg/L (≈ 0.932 µM)
- MIC [3]: 1 mg/L (≈ 3.73 µM)
- ∆OD S. aureus [4]: 0.0
- melting point: 205 to 207 °C
- IC50 [5]: 3.42 ± 0.54 mg/L (≈ 12.7 µM)
- ∆OD E. coli [6]: 0.0
- ∆OD A. alternata [7]: 0.87
- Lag-phase A. alternata [7]: 13.0 h
- IC50 [8]: 2 ± 0.12 mg/L (≈ 7.46 µM)
- IC50 [9]: 4.64 ± 0.54 mg/L (≈ 17.3 µM)
- ∆OD C. albicans [16]: 0.13
- Lag-phase C. albicans [16]: 12.0 h
- ∆OD F. linii [12]: 0.0
- MIC [13]: 0.25 mg/L (≈ 0.932 µM)
- IC50 [14]: 1.8 ± 0.1 mg/L (≈ 6.71 µM)
- IC50 at 48 h [15]: 3.1 ± 0.5 mg/L (≈ 11.6 µM)

From publication PMC6891756, “Synthesis and Biological Evaluation of Novel Aminochalcones as Potential Anticancer and Antimicrobial Agents” (Molecules, 2019)
